Test results from patent US20230242669A1, “ANTIBODY THAT BINDS ERBB-2 AND ERBB-3” (Merus N.V., priority 2014, published 2023).

Assays:
[1] = system: SKBR-3 and N87 cells; experiment: Internalization of pH-sensitive dye labelled antibodies; assay type: cell-based, human; conditions: 100 nM labelled antibody, 1 ng/ml HRG
[2] = system: SK-BR-3 and MCF-7 target cells; experiment: ADCC 51Cr release assay; assay type: cell-based, human; conditions: whole blood or PBMC effector cells
Protocol: ADCC activity is an important anti-tumour mechanism of action for therapeutic antibodies in cancer. […] Trastuzumab and a negative control antibody were included as control antibodies in the experiment. Whole blood and PBMC fractions were obtained from healthy donors. Each antibody was tested against the HER2 high (SK-BR-3) and HER2 low (MCF-7) expressing target cells. Target cells were loaded with ^51Cr (Amersham) and opsonized with the indicated concentrations of antibody. Whole-blood or PBMC fraction were used as effector cells in a 200 µL reaction in RPMI 1640 + 10% heat inactivated FCS. Cells were incubated together for 4 h, and lysis was estimated by measuring radioactivity in the supernatant using a Y^- scintillator. Percentage of specific lysis was calculated as follows: (experimental cpm – basal cpm) / (maximal cpm – basal cpm) × 100, with maximal lysis determined in the presence of 5% Triton X-100 and basal lysis in the absence of antibody and effectors.
ADCC activity can be enhanced by different techniques, one of them being the removal of fucose. […] Both antibodies were applied in a serial dilution and a negative control antibody and trastuzumab were included in the assay.

[3] = system: HER2:HER3 signaling in JIMT-1 tumors; experiment: VeraTag analysis of JIMT-1 tumors; assay type: in vivo, mice
Protocol: Next, samples were paraffin-embedded. Sections of 7 um in thickness were sliced with a microtome (LEICA) and placed on positively charged glass slides (VWR) with serial number labeled. Slides were air-dried for 30 min and then baked in a heated oven set at 60° C. Next samples were processed for different VeraTag analysis. Total HER2 analysis (HT2) according to U.S. Pat. Appl. No. 12/340,436, total HER3 analysis (H3T) according to U.S. Pat. No. 8,349,574; U.S. Pat. Appl. No. 2013/0071859 and finally HER2-HER3 heterodimer (H23D), HER3pY1289 (H3pY1289) and HER3-PI3 kinase (H3PI3K) according to Int′l Patent Appl. No. PCT/US2014/033208.

[4] = system: AKT in JIMT-1 tumors; experiment: Phosphoprotein analysis of JIMT-1 tumors by Luminex; assay type: in vivo, mice
Protocol: Tumors were flash-frozen and processed to powder. Tumor lysates were prepared to a concentration of 50 mg tumor/mL using cold BioRad Lysis Buffer (supplemented with 0.4% BioRad Factor 1, 0.2% BioRad Factor 2, and 2 mM PMSF) to the frozen powder samples, incubated at 4° C. on a rocker for 60 minutes to ensure complete lysis. The samples were centrifuged at 4° C. for 10 minutes at 16000 × g, and aliquoted. Total protein was determined using the Biorad DC Protein Assay reagents according to manufacturer’s instructions. Luminex Assay: The JIMT-1 tumor lysate samples were processed and analyzed for: Total AKT AKT(Ser473) and AKT(Thr308using commercially available Luminex kits from Millipore (Cat # 48-618MAG (Lot No. 2532050), 46-645MAG (Lot No. 46645 M-1K). Each sample was tested in duplicate. Dilutions were prepared in sample diluent to load a target of approximately 25 µg protein per well for all total and phosphorylated analyte determinations. The Millipore kits were used according to the manufacturer’s specifications.

[5] = system: HER2+, HER2++ and HER2+++ breast and gastric cancer cell lines; experiment: FACS binding to cell lines with different HER2 levels; parameters: species or system human; conditions: HER2++ and HER2+ cells
Protocol: Cells were considered HER2+++ if they express millions of HER2 copies and/or are HER2 gene amplified. The following cell lines were used: MCF-7 (HER 2 +); MDA-MB-468 (HER2 +, MKN-45 (HER2 +), MDA-MB-175 (HER2+), MDA-MB-453 (HER2 ++), MDA-MB-361(HER2 ++), ZR-75-1(HER2 ++), JIMT-1 (HER2+++), BT-474 (HER2+++), SKBR-3 (HER2+++), SK-OV-3 (HER2+++), N87 (HER2+++). Cells of an exponentially grown culture were harvested by trypsin and diluted to 10^6 cells/ml in FACS buffer (PBS/0.5%BSA/0.5 mM EDTA). 1-2 10^5 cells were added to each well in a U-bottom 96 well plate. Cells were centrifuged for 2 minutes at 300 g at 4° C. Supernatant was discarded by inverting plate(s) above, followed by flicking once. 50 µl of each IgG sample was added in a serial dilution from 3.16 ng- 10 µg/ml and incubated for 1H on ice. Cells were centrifuged once, supernatant was removed and cells were washed twice with FACS buffer. 50 µl diluted 1:100 mouse anti human IgG gamma PE (INVITROGEN®) was added and incubated for 30-60 minutes on ice in the dark. […] Cells were analysed on a FACSCanto Flow cytometer in a HTS setting. The quantity of antibody bound was assessed by median fluorescence. Data were plotted and the area under the curve (AUC, a cumulative measurement of the median fluorescence intensity) was determined for each antibody per cell line tested (FIG. 26).

PB4188: bispecific HER2xHER3 IgG: HER2 arm MF3958, HER3 arm MF3178
Internalization [1]: internalizes to the same extend as trastuzumab | ADCC activity [2]: effective at high antibody concentrations | Total HER2, HER3 or phosphorylated HER3 in tumors versus controls ([3]; 25 mg/kg): no difference | HER2:HER3 dimers in tumors versus untreated controls ([3]; 25 mg/kg, both dosing regimens): significant PB4188 mediated reduction in HER2:HER3 dimers | HER3-p85 (PI3K) in tumors versus untreated controls ([3]; 4H after dosing): significant reduction in HER3-p85 (PI3K) | Akt expression in tumors compared to untreated tumors ([4]; JIMT-1 tumors): increase in Akt expression | Phosphorylation of AKT in tumors ([4]; after two-weekly and four-weekly dose): completely inhibited | Binding affinity compared to trastuzumab (AUC of median fluorescence) [5]: higher binding affinity
